{"source": "patent EP4417201A1", "about": "“PHARMACEUTICAL COMPOSITIONS FOR USE IN CANCER TREATMENT” (Robert Bosch Gesellschaft für medizinische Forschung mbH, priority 2023, dated 2024)", "target": "T1, purified porcine tubulin (Sus scrofa, UniProt P02550+P02554)", "T1 construct": "purchased Cytoskeleton, Denver, CO, USA BK006P", "T1 sequence (P02550 whole entry)": "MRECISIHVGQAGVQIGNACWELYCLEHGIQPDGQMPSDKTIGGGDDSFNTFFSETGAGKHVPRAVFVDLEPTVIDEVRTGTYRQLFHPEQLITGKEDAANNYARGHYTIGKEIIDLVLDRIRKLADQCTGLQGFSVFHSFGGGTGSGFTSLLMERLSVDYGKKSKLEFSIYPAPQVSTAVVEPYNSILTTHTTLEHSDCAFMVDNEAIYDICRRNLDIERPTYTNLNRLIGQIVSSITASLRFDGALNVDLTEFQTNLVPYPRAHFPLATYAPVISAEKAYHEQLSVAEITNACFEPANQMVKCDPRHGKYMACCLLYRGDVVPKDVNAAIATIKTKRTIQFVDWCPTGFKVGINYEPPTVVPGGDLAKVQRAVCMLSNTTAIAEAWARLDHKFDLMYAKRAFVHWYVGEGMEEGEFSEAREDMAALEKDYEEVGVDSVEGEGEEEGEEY", "T1 sequence (P02554 whole entry)": "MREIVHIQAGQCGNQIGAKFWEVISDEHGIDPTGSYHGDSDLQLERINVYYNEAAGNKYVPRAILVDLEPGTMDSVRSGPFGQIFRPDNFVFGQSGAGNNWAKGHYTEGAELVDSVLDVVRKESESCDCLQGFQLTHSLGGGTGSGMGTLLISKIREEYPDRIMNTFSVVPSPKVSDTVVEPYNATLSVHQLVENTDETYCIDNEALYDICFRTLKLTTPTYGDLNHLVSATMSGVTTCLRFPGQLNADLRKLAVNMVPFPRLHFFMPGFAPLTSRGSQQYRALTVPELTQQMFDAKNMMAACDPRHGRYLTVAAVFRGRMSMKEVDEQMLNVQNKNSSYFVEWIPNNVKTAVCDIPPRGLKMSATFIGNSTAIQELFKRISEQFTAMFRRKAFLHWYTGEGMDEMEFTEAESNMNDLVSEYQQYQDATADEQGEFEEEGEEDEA", "test": "Tubulin polymerization assay", "format": "biochemical", "conditions": "10 µM, absorbance at 340 nm, 35°C", "procedure": "A tubulin polymerization assay kit (part# BK006P, Cytoskeleton, Denver, CO, USA) was used to address the direct effects of chemical compounds on tubulin polymerization dynamics. A porcine >99% pure tubulin preparation (3 mg/ml) free of microtubule-associated proteins in 80 mM PIPES pH 6.9, 2 mM MgCl2, 0.5 mM EGTA, 1 mM GTP, and 10.2% glycerol was incubated with Formula A-1 (100 µM), Formula A-2(100 µM), paclitaxel (10 µM), or buffer. Microtubule polymerization was initiated by tubulin addition; changes in microtubule turbidity were measured kinetically at 340 nm at 35°C (EnSpire Multimode Plate Reader 2300, PerkinElmer).\nTo determine whether the influence of compounds of Formula A-1 and Formula A-2 on microtubule formation was due to on-target activity, the direct effect of chalcone compounds of Formula A on tubulin polymerization rates was examined by incubation of purified porcine tubulin with Formula A-1 or Formula A-2 and comparison of the results with those of paclitaxel, a well-established microtubule-stabilizing agent. Microtubule formation was measured kinetically at an absorbance of 340 nm."}
{"molecule": "CC(=O)O[C@H]1C(=O)[C@@]2(C)[C@H]([C@H](OC(=O)c3ccccc3)[C@]3(O)C[C@H](OC(=O)[C@H](O)[C@@H](NC(=O)c4ccccc4)c4ccccc4)C(C)=C1C3(C)C)[C@]1(OC(C)=O)CO[C@@H]1C[C@@H]2O", "note": "[paclitaxel]", "values": [{"measurement": "tubulin polymerization", "value": "the kinetics of tubulin polymerization is enhanced and the polymerization equilibrium shifts towards polymerized tubulin"}]}
